Data set [1] is described as follows: Actual solubility in aqueous buffers. Format: physicochemical. The settings on record: aqueous buffer. Here is the method: The actual solubility of certain compounds of the invention was assessed in aqueous buffers and final concentration of compounds was determined using HPLC and spectrophotometer methodologies.
Data set [2] addresses CB1 receptor (Homo sapiens, UniProt P21554). The experiment in a line: biochemical. Format: binding. The settings on record: displaces 50% of a radiolabeled agonist.
Data set [3] has as its system conscious rats treated with cyclophosphamide. Nature of the data set: Cystometry in cyclophosphamide-induced model of IC/PBS. Format: in vivo, rat. As to conditions: 10 mg/kg IP; for Bladder capacity (BC): CYP-treated rats. The source says:
This study involved the determination of the acute effect of the compound of Formula I on bladder function in conscious rats in the cyclophosphamide-induced model of interstitial cystitis/painful bladder syndrome (“IC/PBS”) using cystometry. The clinical use of cyclophosphamide (“CYP”), a chemotherapy drug that is given as a treatment for many types of cancer, can cause inflammation of the bladder lining, inducing acute hemorrhagic cystitis or chronic cystitis, and result in side effects in the bladder that can be seen in patients with IC/PBS. (Levine L A, Richie J P. Urological complications of cyclophosphamide. J Urol. 1989; 141:1063; Stillwell T J, Benson R C. Cyclophosphamide-induced cystitis. A review of 100 patients. Cancer. 1988; 61:451). The cystitis is not caused by CYP itself, but to acrolein, a toxic CYP metabolite produced by microsomal metabolism that is eliminated by the bladder (Levine L A, Richie J P. Urological complications of cyclophosphamide. J Urol. 1989; 141:1063). In rats, IP administration of CYP induces bladder inflammation and disrupts the urothelial lining, increasing afferent nerve sensitivity and leading to bladder overactivity. Bladder weight is increased due to the inflammation, and bladder capacity is decreased (Corrow K A, Vizzard M A. Phosphorylation of extracellular signal-regulated kinases in urinary bladder in rats with cyclophosphamide-induced cystitis. Am J Physiol. 2007; 293:R125; Lecci A, Birder L A, Meini S, Catalioto R-M, Tramontana M, Giuliani S, Criscuoli M, Maggi C A. Pharmacological evaluation of the role of cyclooxygenase isoenzymes on the micturition reflex following experimental cystitis in rats. Br J Pharmacol. 2000; 130:331).
Male Sprague Dawley rats, weighing 250 g, were maintained under standard laboratory conditions with a 12:12 light/dark cycle and free access to food pellets and water. For surgical procedures, the rats were anesthetized with IP administration of Equinthensin solution (3 ml/kg).
The bladder was exposed via a mid-line incision of the lower abdomen, and the bladder was freed from adhering tissues and emptied. A saline-filled polyethylene catheter (0.58 mm ID and 0.96 mm OD) was implanted in the bladder via an incision at the bladder dome and sutured in place with silk thread. For IV compound administration, a similar PE catheter filled with saline containing sodium heparin (40 IU/ml) was inserted into a jugular vein. The cannulas were exteriorized through a subcutaneous tunnel in the retroscapular area and are connected with a plastic adaptor in order to avoid removal by the animal. […]
Bladder capacity (“BC”) and micturition pressure (“MP”) were the urodynamic parameters evaluated from the cystometrogram. […]

Chain of CB1 receptor (P21554 whole entry): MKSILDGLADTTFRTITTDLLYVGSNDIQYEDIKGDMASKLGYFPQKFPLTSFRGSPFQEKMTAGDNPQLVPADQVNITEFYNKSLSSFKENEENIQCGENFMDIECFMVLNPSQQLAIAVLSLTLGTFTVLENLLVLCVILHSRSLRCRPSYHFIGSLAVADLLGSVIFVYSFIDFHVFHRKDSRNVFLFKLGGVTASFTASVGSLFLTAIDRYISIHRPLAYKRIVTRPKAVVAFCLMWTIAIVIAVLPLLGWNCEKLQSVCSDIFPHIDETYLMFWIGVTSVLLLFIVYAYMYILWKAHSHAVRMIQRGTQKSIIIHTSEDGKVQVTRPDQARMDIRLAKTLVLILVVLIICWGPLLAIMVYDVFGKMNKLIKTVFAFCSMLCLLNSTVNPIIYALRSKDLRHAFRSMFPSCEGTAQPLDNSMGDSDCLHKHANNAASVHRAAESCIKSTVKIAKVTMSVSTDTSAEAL

The molecule `CCCCCCC(C)(C)c1cc(O)c([C@H]2CC(=O)[C@H]3C[C@@H]2C3(C)C)c(OC(=O)/C=C/C(=O)O)c1` [Formula I] came in with a solubility in data set [1] above 10000 µg/mL. In data set [2], the IC50 is 660 nM. Moreover, the “Reduction of BC compared to pre-CYP treatment levels” value came out at 29% in data set [3] (26 hr time point) and 21% in data set [3] (28 hr time point). The “Bladder capacity (BC)” value worked out at 0.57 ± 0.06 mL in data set [3] (2 hr post treatment (26 hr time point)) and 0.63 ± 0.09 mL in data set [3] (4 h after administration (28 hr time point)).

Usually solubility stands for the concentration that dissolves in the medium under given conditions. Low values mean a poorly soluble substance, high ones a readily soluble substance. In general, IC50 refers to the concentration at which inhibition is half-maximal.
